Laboratory results published in the supplement of paper PMC10307832.

Tests used:
Test in all cases: relative viability (nuclei count vs DMSO), 5 days (fraction); higher = more cells survive
EHT 1864 + Trametinib = compound: C1COCCN1CC2=CC(=O)C(=CO2)OCCCCCSC3=C4C=CC(=CC4=NC=C3)C(F)(F)F [EHT 1864] + CC(=O)Nc1cccc(-n2c(=O)n(C3CC3)c(=O)c3c(Nc4ccc(I)cc4F)n(C)c(=O)c(C)c32)c1 [Trametinib] (partner 0.02 µM)
Summary of the method: (§1)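 Lung cancer cell lines, seeded in 1536-well plates, were treated the following day by pin tool with a single drug or with five library-drug doses (not always all listed) in √10 steps on top of a fixed anchor-drug dose. Cells were fixed and nuclei stained in one step after 5 days, and nuclei were counted. Relative viability is the nuclei count for treated wells divided by that for vehicle wells, reported as medians of duplicate plates.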

EHT 1864 + OSI-027 = compound: C1COCCN1CC2=CC(=O)C(=CO2)OCCCCCSC3=C4C=CC(=CC4=NC=C3)C(F)(F)F [EHT 1864] + COc1cccc2cc(-c3nc([C@H]4CC[C@H](C(=O)O)CC4)n4ncnc(N)c34)[nH]c12 [OSI-027] (partner 0.5 µM)
Summary of the method: as §1

EHT 1864 + Lapatinib = compound: C1COCCN1CC2=CC(=O)C(=CO2)OCCCCCSC3=C4C=CC(=CC4=NC=C3)C(F)(F)F [EHT 1864] + CS(=O)(=O)CCNCc1ccc(-c2ccc3ncnc(Nc4ccc(OCc5cccc(F)c5)c(Cl)c4)c3c2)o1 [Lapatinib] (partner 2 µM)
Summary of the method: as §1

EHT 1864 + Linsitinib = compound: C1COCCN1CC2=CC(=O)C(=CO2)OCCCCCSC3=C4C=CC(=CC4=NC=C3)C(F)(F)F [EHT 1864] + C[C@]1(O)C[C@@H](c2nc(-c3ccc4ccc(-c5ccccc5)nc4c3)c3c(N)nccn32)C1 [Linsitinib] (partner 1 µM)
Summary of the method: as §1

Row | Cell Line | relative viability (EHT 1864 + Trametinib; first compound 0.04 µM) | relative viability (EHT 1864 + Trametinib; first compound 0.1265 µM) | relative viability (EHT 1864 + Trametinib; first compound 0.4 µM) | relative viability (EHT 1864 + Trametinib; first compound 1.265 µM) | relative viability (EHT 1864 + Trametinib; first compound 4 µM) | relative viability (EHT 1864 + OSI-027; first compound 0.04 µM) | relative viability (EHT 1864 + OSI-027; first compound 0.1265 µM) | relative viability (EHT 1864 + OSI-027; first compound 0.4 µM) | relative viability (EHT 1864 + OSI-027; first compound 1.265 µM) | relative viability (EHT 1864 + OSI-027; first compound 4 µM) | relative viability (EHT 1864 + Lapatinib; first compound 0.04 µM) | relative viability (EHT 1864 + Lapatinib; first compound 0.1265 µM) | relative viability (EHT 1864 + Lapatinib; first compound 0.4 µM) | relative viability (EHT 1864 + Lapatinib; first compound 1.265 µM) | relative viability (EHT 1864 + Lapatinib; first compound 4 µM) | relative viability (EHT 1864 + Linsitinib; first compound 0.04 µM) | relative viability (EHT 1864 + Linsitinib; first compound 0.1265 µM) | relative viability (EHT 1864 + Linsitinib; first compound 0.4 µM) | relative viability (EHT 1864 + Linsitinib; first compound 1.265 µM) | relative viability (EHT 1864 + Linsitinib; first compound 4 µM)
1 | 201T | 0.702 | 0.707 | 0.681 | 0.693 | 0.605 | 0.762 | 0.549 | 0.623 | 0.572 | 0.744 | 1.07 | 1 | 1.07 | 1.01 | 1.01 | 1.08 | 1.05 | 1.08 | 0.925 | 1.03
2 | A549 | – | – | – | – | – | – | – | – | – | – | 0.927 | 0.894 | 0.996 | 0.914 | 0.625 | 0.598 | 0.658 | 0.641 | 0.599 | 0.639
3 | A-427 | 0.698 | 0.837 | 0.758 | 0.812 | 0.736 | 0.524 | 0.345 | 0.503 | 0.447 | 0.469 | 1.09 | 1.06 | 1 | 1.09 | 1.07 | 1.09 | 1.18 | 1.15 | 1.11 | 1.13
4 | ABC-1 | – | – | – | – | – | 0.469 | 0.504 | 0.48 | 0.513 | 0.436 | 1.06 | 1.15 | 0.949 | 0.729 | 1.15 | 0.769 | 0.797 | 0.73 | 0.718 | 0.555
5 | BEN | 0.819 | 0.949 | 1.09 | 0.928 | 1.1 | 0.303 | 0.278 | 0.297 | 0.299 | 0.302 | 0.811 | 0.638 | 0.671 | 0.556 | 0.666 | 0.862 | 0.801 | 0.879 | 0.851 | 0.985
6 | CAL-12T | 0.35 | 0.287 | 0.333 | 0.399 | 0.39 | 0.591 | 0.437 | 0.593 | 0.552 | 0.8 | 0.63 | 0.562 | 0.677 | 0.675 | 0.799 | 0.824 | 0.667 | 0.79 | 0.824 | 0.838
7 | COR-L23 | 0.524 | 0.453 | 0.598 | 0.631 | 0.553 | 0.821 | 0.467 | 0.647 | 0.796 | 0.747 | 0.975 | 0.814 | 0.86 | 0.825 | 0.889 | 0.94 | 0.921 | 0.942 | 0.949 | 0.873
8 | COR-L 105 | 0.443 | 0.395 | 0.513 | 0.462 | 0.508 | 0.773 | 0.559 | 0.851 | 0.61 | 0.655 | 0.345 | 0.374 | 0.338 | 0.38 | 0.334 | 0.889 | 0.963 | 0.906 | 1.12 | 0.848
9 | Calu-6 | – | – | – | – | – | – | – | – | – | – | 1.03 | 0.933 | 1.03 | 1.04 | 0.857 | 0.99 | 0.737 | 0.96 | 0.875 | 0.893
10 | ChaGo-K-1 | 0.839 | 0.85 | 0.89 | 0.911 | 0.871 | 0.512 | 0.476 | 0.7 | 0.562 | 0.517 | – | – | – | – | – | – | – | – | – | –
11 | EBC-1 | – | – | – | – | – | – | – | – | – | – | 0.222 | 0.225 | 0.194 | 0.19 | 0.238 | 0.883 | 0.426 | 0.914 | 0.896 | 0.99
12 | EKVX | 0.412 | 0.35 | 0.35 | 0.367 | 0.28 | 0.705 | 0.68 | 0.698 | 0.711 | 0.839 | 0.238 | 0.216 | 0.205 | 0.207 | 0.21 | 0.886 | 0.976 | 1.04 | 1.08 | 1.02
13 | EMC-BAC-2 | 0.759 | 0.721 | 0.889 | 0.924 | 0.99 | 0.465 | 0.309 | 0.383 | 0.37 | 0.341 | 0.901 | 0.765 | 0.765 | 0.845 | 0.882 | 0.803 | 0.757 | 0.792 | 0.815 | 0.784
14 | EPLC-272H | 0.283 | 0.288 | 0.29 | 0.267 | 0.289 | 0.296 | 0.254 | 0.257 | 0.324 | 0.253 | 1.06 | 0.624 | 1.12 | 0.88 | 0.801 | 1.4 | 1.16 | 1.04 | 1.32 | 1.25
15 | H3255 | 0.561 | 0.527 | – | 0.65 | 0.67 | 0.552 | 0.582 | 0.603 | 0.602 | 0.616 | 0.235 | 0.239 | 0.275 | 0.298 | 0.317 | 0.934 | 0.848 | 1.04 | 1 | 0.898
16 | HARA | 0.729 | – | 0.908 | 0.782 | 1.14 | 0.433 | 0.201 | 0.516 | 0.454 | 0.435 | 0.718 | 0.702 | 0.688 | 0.706 | 0.758 | 0.963 | 0.928 | 1.08 | 0.983 | 1.01
17 | HCC-15 | 0.404 | – | 0.362 | 0.362 | 0.41 | 0.608 | – | 0.704 | 0.66 | 0.615 | 0.859 | 0.61 | 0.872 | 0.76 | 0.873 | 0.877 | 0.827 | 0.888 | 0.86 | 0.922
18 | HCC-44 | 1.08 | 0.977 | 0.961 | 0.967 | 1.11 | 0.573 | 0.383 | 0.525 | 0.522 | 0.575 | 1.04 | 0.822 | 0.955 | 1.05 | 0.965 | 0.692 | 0.58 | 0.598 | 0.642 | 0.621
